Where “and” joins values, the source holds several entries; their conditions need not be identical. Equal entries are not always repeated.
Columns and labels:
[1] = tested on: normal human epidermal melanocytes (NHEM); test: Inhibition of melanin synthesis in L-tyrosine-stimulated human epidermal melanocytes; format: cell-based; conditions: 300 μM; stimulation by L-tyrosine (1 mM); 240 hours; n=3
Description: Human melanocytes are stimulated by L-tyrosine to induce an increase of the melanin synthesis and be able to measure an inhibition of this synthesis when a whitening agent is added.
Biological model: normal human epidermal melanocytes (NHEM), lightly pigmented, were cultured in medium M254 supplemented with PMA free HMGS-2; Insulin 5 ag/ml; Penicillin 50 U/ml; Streptomycin 50 ag/ml; Gentamycin 25 μg/ml (incubator: 37° C. and 5% CO2).
Culture and treatment: melanocytes were seeded in 24-well plates and cultured in culture medium for 24 hours. The medium was then replaced by culture medium containing the test compounds or not (stimulated control) in presence of the inducer (L-tyrosine at 1 mM). The cells were then incubated for 240 hours with 2 treatment renewals after 72 and 168 hours of incubation. A non-stimulated control was performed in parallel. All experimental conditions were performed in n=3.
Melanin assay: at the end of incubation, the culture supernatants were removed and the melanin was extracted by cell lysis using a 0.5 N NaOH solution. The optical density (OD) of each experimental point was measured at 405 nm and melanin quantity was calculated using melanin standards (standard curve 0.39 to 100 μg/ml melanin). Results were expressed in […] of melanin.

NHEM culture = test: Determination of the higher non-cytotoxic concentration on NHEM culture; format: cell-based, human
Description: The compounds have been tested beforehand at different concentrations on the NHEM culture to determine the higher non-cytotoxic concentration to be used to evaluate the potential inhibition of melanin synthesis. The determined concentration was 300 μM for all compounds: 8, 16, 28a.

human tyrosinase = test: Inhibition of human tyrosinase in-tubo (HumanLike Tyrosinase Assay kit, Feldan); format: biochemical; conditions: 1.12 mM
Description: The efficacy of compound 8 was evaluated by the inhibition of human tyrosinase in-tubo and compared to the prior art compound deoxyarbutin.
The assay was performed with a ready-to-use kit from Feldan Inc (Canada): the HumanLike Tyrosinase Assay kit (ref A021-a-001Kit).
The protocol was performed as described in the instructions for use of the manufacturer. Briefly, this kit is intended for the determination of human tyrosinase activity in presence of different inhibitors. The kit measures the conversion of L-Tyrosine into a dopachrome complex absorbing at 490 nm. The time course of the assay is 20 minutes, after which the results are analyzed and compared.
The compound 8 and deoxyarbutin have been tested at a final concentration of 1.12 mM. The measured absorbances at 490 nm are reported in the table 1 and plotted in function of time in the FIG. 1.
Moreover for each compound the efficacy as tyrosinase inhibitor was calculated using the following formula: […]

Question: Which results are given for `Oc1ccc(OC2C(O)CCCC2(F)F)cc1` (racemic) [Compound 16]?
Answer: Melanin synthesis (μg/ml), single replicates [1]: 7.9 μg/ml and 8.2 μg/ml (2×); Melanin synthesis, Mean [1]: 8.1 µg/mL; higher non-cytotoxic concentration (NHEM culture): 300 µM

Question: `N[C@@H]1CCCC(F)(F)[C@@H]1Oc1ccc(O)cc1` [Compound 28a] was tested. Which “Melanin synthesis (μg/ml), single replicates” value [1] did it give?
Answer: 9.9 µg/mL and 10.5 µg/mL and 10.2 µg/mL

Question: What about the “Melanin synthesis, Mean” value [1] of the same compound?
Answer: 10.2 µg/mL

Question: And the higher non-cytotoxic concentration (NHEM culture)?
Answer: 300 µM

Question: Which “Inhibitor efficacy (%)” value (human tyrosinase; T = 20 min) does the source give for `Oc1ccc(OC2CCCCO2)cc1` (stereo not drawn) [Deoxyarbutin, deoxyarbutin, reference compound] here?
Answer: 9.4%

Question: And the “OD at 490 nm” value (human tyrosinase; time 0 min)?
Answer: 0.0000

Question: And the “OD at 490 nm” value (human tyrosinase; time 1 min)?
Answer: 0.0100

Question: What about the “OD at 490 nm” value (human tyrosinase; time 2 min) of the same compound?
Answer: 0.0195

Question: And the “OD at 490 nm” value (human tyrosinase; time 3 min)?
Answer: 0.0290

Question: What about the “OD at 490 nm” value (human tyrosinase; time 4 min) of the same compound?
Answer: 0.0385

Question: And the “OD at 490 nm” value (human tyrosinase; time 5 min)?
Answer: 0.0480

Question: What about the “OD at 490 nm” value (human tyrosinase; time 6 min) of the same compound?
Answer: 0.0585

Question: And the “OD at 490 nm” value (human tyrosinase; time 7 min)?
Answer: 0.0695

Question: And the “OD at 490 nm” value (human tyrosinase; time 8 min)?
Answer: 0.0800

Question: What about the “OD at 490 nm” value (human tyrosinase; time 9 min) of the same compound?
Answer: 0.0935

Question: What about the “OD at 490 nm” value (human tyrosinase; time 10 min) of the same compound?
Answer: 0.1035

Question: What about the “OD at 490 nm” value (human tyrosinase; time 11 min) of the same compound?
Answer: 0.1155

Question: What about the “OD at 490 nm” value (human tyrosinase; time 12 min) of the same compound?
Answer: 0.1265

Question: And the “OD at 490 nm” value (human tyrosinase; time 13 min)?
Answer: 0.1385

Question: What about the “OD at 490 nm” value (human tyrosinase; time 14 min) of the same compound?
Answer: 0.1500

Question: What about the “OD at 490 nm” value (human tyrosinase; time 15 min) of the same compound?
Answer: 0.1615

Question: And the “OD at 490 nm” value (human tyrosinase; time 16 min)?
Answer: 0.1735

Question: And the “OD at 490 nm” value (human tyrosinase; time 17 min)?
Answer: 0.1846

Question: What about the “OD at 490 nm” value (human tyrosinase; time 18 min) of the same compound?
Answer: 0.1975

Question: What about the “OD at 490 nm” value (human tyrosinase; time 19 min) of the same compound?
Answer: 0.2095

Question: What about the “OD at 490 nm” value (human tyrosinase; time 20 min) of the same compound?
Answer: 0.2220

Question: `Oc1ccc(O[C@@H]2[C@H](O)[C@@H](O)CCC2(F)F)cc1` [Compound 8] was tested. Which “Inhibitor efficacy (%)” value (human tyrosinase; T = 20 min) did it give?
Answer: 32.0%

Question: What about the “times better efficacy than deoxyarbutin on human tyrosinase inhibition” value (human tyrosinase; T = 20 min) of the same compound?
Answer: 3.4 times

Question: What about the “OD at 490 nm” value (human tyrosinase; time 0 min) of the same compound?
Answer: 0.0000

Question: And the “OD at 490 nm” value (human tyrosinase; time 1 min)?
Answer: 0.0080

Question: And the “OD at 490 nm” value (human tyrosinase; time 2 min)?
Answer: 0.0170

Question: And the “OD at 490 nm” value (human tyrosinase; time 3 min)?
Answer: 0.0245

Question: And the “OD at 490 nm” value (human tyrosinase; time 4 min)?
Answer: 0.0345

Question: And the “OD at 490 nm” value (human tyrosinase; time 5 min)?
Answer: 0.0415

Question: And the “OD at 490 nm” value (human tyrosinase; time 6 min)?
Answer: 0.0505

Question: And the “OD at 490 nm” value (human tyrosinase; time 7 min)?
Answer: 0.0610

Question: And the “OD at 490 nm” value (human tyrosinase; time 8 min)?
Answer: 0.0675

Question: What about the “OD at 490 nm” value (human tyrosinase; time 9 min) of the same compound?
Answer: 0.0755

Question: And the “OD at 490 nm” value (human tyrosinase; time 10 min)?
Answer: 0.0845

Question: What about the “OD at 490 nm” value (human tyrosinase; time 11 min) of the same compound?
Answer: 0.0935

Question: And the “OD at 490 nm” value (human tyrosinase; time 12 min)?
Answer: 0.1015

Question: What about the “OD at 490 nm” value (human tyrosinase; time 13 min) of the same compound?
Answer: 0.1090

Question: And the “OD at 490 nm” value (human tyrosinase; time 14 min)?
Answer: 0.1165

Question: What about the “OD at 490 nm” value (human tyrosinase; time 15 min) of the same compound?
Answer: 0.1255

Question: What about the “OD at 490 nm” value (human tyrosinase; time 16 min) of the same compound?
Answer: 0.1355

Question: What about the “OD at 490 nm” value (human tyrosinase; time 17 min) of the same compound?
Answer: 0.1405

Question: And the “OD at 490 nm” value (human tyrosinase; time 18 min)?
Answer: 0.1495

Question: What about the “OD at 490 nm” value (human tyrosinase; time 19 min) of the same compound?
Answer: 0.1575

Question: What about the “OD at 490 nm” value (human tyrosinase; time 20 min) of the same compound?
Answer: 0.1665

Question: And the “Melanin synthesis (μg/ml), single replicates” value [1]?
Answer: 9.2 μg/ml (2×) and 9.4 μg/ml

Question: And the “Melanin synthesis, Mean” value [1]?
Answer: 9.3 µg/mL

Question: And the higher non-cytotoxic concentration (NHEM culture)?
Answer: 300 µM

Source: patent publication US10640441B2, “Difluorinated compounds as depigmenting or lightening agents” (TFCHEM, priority 2016, dated 2020)
